In experiment [1] the test system is SKBr3 HER2+ breast cancer cells. The experiment is described as follows: Growth Inhibition Assay (Alamar blue), SKBr3. It counts as cell-based, human. Here is the method: (§1) The IC50 values listed for some of these compounds illustrate the antiproliferative effects of the subject compounds and were obtained using the Growth Inhibition assays described herein.
(§2) Growth Inhibition Assay. Antiproliferative effects of inhibitors were evaluated using the dye Alamar blue. This reagent offers a rapid objective measure of cell viability in cell culture, and it uses the indicator dye resazurin to measure the metabolic capacity of cells, an indicator of cell viability. Briefly, cells were plated on Costar 96-well plates. For attached cells (such as SKBr3, MDA-MB-468, LNCaP, MRCS), 8,000 cells/well were used. For suspension cells (such as MOLM-13, Kasumi-1, OCI-Ly7, PBL), 20,000 cells/well were plated. Cells were allowed to incubate for 24 h at 37° C. before drug treatment. Drugs were added in triplicates at the indicated concentrations, and the plate was incubated for 72 h. Alamar Blue (440 μM) was added, and the plate read 6 h later using the Analyst GT (Fluorescence intensity mode, excitation 530 nm, emission 580 nm, with 560=dichroic mirror). Results were analyzed using the Softmax Pro software. The percentage cell growth inhibition was calculated by comparing fluorescence readings obtained from treated versus control cells, accounting for initial cell population (time zero).
For orientation: The colour change of resazurin is a common sign of viable cells or microbes.

Experiment [2] has as its system Kasumi-1 acute myeloid leukemia cells. The experiment in a line: Growth Inhibition Assay (Alamar blue), Kasumi-1. The class given is cell-based, human. The conditions noted are these: Kasumi-1 cells. The protocol: as §1, §2

These results are taken from US9567318B2, “Substituted pyrimidine compounds and uses thereof” (Memorial Sloan-Kettering Cancer Center, priority 2009, dated 2017).

A word on the IC50: it is the point on the concentration scale where inhibition reaches its midpoint. A high value points to weaker potency.

As for `C=C(C)C(=O)Nc1cccc(Sc2c(OC)nc(N3CCN(C)CC3)nc2OC)c1` [YK132, N-(3-(4,6-dimethoxy-2-(4-methylpiperazin-1-yl)pyrimidin-5-ylthio)phenyl)methacrylamideN-(3-(4,6-dimethoxy-2-(4-methylpiperazin-1-yl)pyrimidin-5-ylthio)phenyl)methacrylamide], the values for the IC50 in experiment [1] (72 h) and in experiment [2] (72 h) were 17.8 µM and 7.7 µM, respectively.
In the case of `C=CC(=O)Nc1ccnc(Sc2c(OC)nc(N3CCN(C)CC3)nc2OC)n1` [YK71, N-(2-(4,6-dimethoxy-2-(4-methylpiperazin-1-yl)pyrimidin-5-ylthio)pyrimidin-4-yl)acrylamide], the 50% inhibitory concentration (IC50) in experiment [1] (Homo sapiens, SK-BR-3, 72 h) was found to be 1.2 µM; in experiment [2] (Homo sapiens, Kasumi 1, 72 h), 0.8 µM.
`COc1nc(N2CCOCC2)nc(OC)c1Sc1cccc(NC(=O)C2CC2)c1` [PDP6, N-(3-(4,6-dimethoxy-2-morpholinopyrimidin-5-ylthio)phenyl)cyclopropanecarboxamide] gave an IC50 in experiment [1] (Homo sapiens, SK-BR-3, 72 h) of 9.9 µM.
On to `COCC(=O)Nc1ccnc(Sc2c(C)nc(N3CCOCC3)nc2C)n1` [YK123, N-(2-(4,6-dimethyl-2-morpholinopyrimidin-5-ylthio)pyrimidin-4-yl)-2-methoxyacetamide], for which the IC50 was more than 100 µM in experiment [1] (Homo sapiens, SK-BR-3, 72 h) and 58.1 µM in experiment [2] (Homo sapiens, Kasumi 1, 72 h).
The matching figures for `CCC(=O)Nc1ccnc(Sc2c(OC)nc(OC)nc2OC)n1` [YK77, N-(2-(2,4,6-trimethoxypyrimidin-5-ylthio)pyrimidin-4-yl)propionamide]: 79.2 µM and 62.3 µM.
As to `COc1nc(N2CC[N+](C)([O-])CC2)nc(OC)c1Sc1nccc(NC(C)=O)n1` [YK75, 4-(5-(4-acetamidopyrimidin-2-ylthio)-4,6-dimethoxypyrimidin-2-yl)-1-methylpiperazine 1-oxide], in experiment [1] (Homo sapiens, SK-BR-3, 72 h), the IC50 was more than 100 µM.
The molecule `C=C(C)C(=O)Nc1cccc(Sc2c(OC)nc(N3CCOCC3)nc2OC)c1` [PDP5, N-(3-(4,6-dimethoxy-2-morpholinopyrimidin-5-ylthio)phenyl)methacrylamide] had a half-maximal inhibitory concentration (IC50) in experiment [1] (Homo sapiens, SK-BR-3, 72 h) of 18.1 µM.
In the case of `CCC(=O)Nc1ccnc(Sc2c(C)nc(N3CCOCC3)nc2C)n1` [YK118, N-(2-(4,6-dimethyl-2-morpholinopyrimidin-5-ylthio)pyrimidin-4-yl)propionamide], the 50% inhibitory concentration (IC50) in experiment [1] (Homo sapiens, SK-BR-3, 72 h) was more than 100 µM; in experiment [2] (Homo sapiens, Kasumi 1, 72 h), more than 100 µM.
`Cc1nc(N2CCN(C)CC2)nc(C)c1Sc1nccc(NC(=O)C2CC2)n1` [YK90, N-(2-(4,6-dimethyl-2-(4-methylpiperazin-1-yl)pyrimidin-5-ylthio)pyrimidin-4-yl)cyclopropanecarboxamide]: the IC50 was found to be 25.8 µM in experiment [1] (Homo sapiens, SK-BR-3, 72 h); 20.1 µM in experiment [2] (Homo sapiens, Kasumi 1, 72 h); 27.1 µM in experiment [2] (72 h).
`COc1nc(N2CCN(C)CC2)nc(OC)c1Sc1cccc(N)c1` [YK133, 3-(4,6-dimethoxy-2-(4-methylpiperazin-1-yl)pyrimidin-5-ylthio)aniline]: the IC50 in experiment [1] (Homo sapiens, SK-BR-3, 72 h) turned out to be 37.3 µM; in experiment [2] (Homo sapiens, Kasumi 1, 72 h) it was 30.5 µM; in experiment [2] (72 h) it was 25.4 µM.
`C=CC(=O)Nc1cccc(Sc2c(OC)nc(N3CCN(C)CC3)nc2OC)c1` [YK129, N-(3-(4,6-dimethoxy-2-(4-methylpiperazin-1-yl)pyrimidin-5-ylthio)phenyl)acrylamide]: the IC50 was determined as 6.8 µM in experiment [1] (Homo sapiens, SK-BR-3, 72 h); 7.7 µM in experiment [2] (Homo sapiens, Kasumi 1, 72 h); 9.9 µM in experiment [2] (72 h).
With `C=CC(=O)Nc1cccc(Sc2c(OC)nc(N3CCOCC3)nc2OC)c1` [PDP3, N-(3-(4,6-dimethoxy-2-morpholinopyrimidin-5-ylthio)phenyl)acrylamide], the IC50 came to 16.5 µM in experiment [1] (Homo sapiens, SK-BR-3, 72 h) and 11.4 µM in experiment [2] (Homo sapiens, Kasumi 1, 72 h).
The matching figures for `C/C=C/C(=O)Nc1cccc(Sc2c(OC)nc(N3CCN(C)CC3)nc2OC)c1` [YK131, (E)-N-(3-(4,6-dimethoxy-2-(4-methylpiperazin-1-yl)pyrimidin-5-ylthio)phenyl)but-2-enamide]: 20.7 µM and 15 µM.
For `CCC(=O)Nc1cccc(Sc2c(OC)nc(N3CCN(CCOCCOCCOCCO)CC3)nc2OC)c1` [YK141, N-(3-(2-(4-(2-(2-(2-(2-hydroxyethoxy)ethoxy)ethoxy)ethyl)piperazin-1-yl)-4,6-dimethoxypyrimidin-5-ylthio)phenyl)propionamide], inhibition in experiment [1] (Homo sapiens, SK-BR-3, 72 h) was half-maximal at 38.9 µM (IC50).
On to `CCC(=O)Nc1ccnc(Sc2c(C)nc(N3CCN(C)CC3)nc2C)n1` [YK86, N-(2-(4,6-dimethyl-2-(4-methylpiperazin-1-yl)pyrimidin-5-ylthio)pyrimidin-4-yl)propionamide], for which the 50% inhibitory concentration (IC50) came to 44.4 µM in experiment [1] (Homo sapiens, SK-BR-3, 72 h) and 26.2 µM in experiment [2] (Homo sapiens, Kasumi 1, 72 h).
Turning to `C=C(C)C(=O)Nc1ccnc(Sc2c(C)nc(N3CCN(C)CC3)nc2C)n1` [YK88, N-(2-(4,6-dimethyl-2-(4-methylpiperazin-1-yl)pyrimidin-5-ylthio)pyrimidin-4-yl)methacrylamide], the IC50 was found to be 16.7 µM in experiment [1] (Homo sapiens, SK-BR-3, 72 h) and 13.1 µM in experiment [2] (Homo sapiens, Kasumi 1, 72 h).
For `CCC(=O)Nc1cccc(Sc2c(OC)nc(N3CCN(CCOCCOCCOCCOC(=O)CCCCC4SCC5NC(=O)NC54)CC3)nc2OC)c1` (centres unmarked) [YK142, 2-(2-(2-(2-(4-(4,6-dimethoxy-5-(3-propionamidophenylthio)pyrimidin-2-yl)piperazin-1-yl)ethoxy)ethoxy)ethoxy)ethyl 5-(2-oxohexahydro-1H-thieno[3,4-d]imidazol-4-yl)pentanoate], the IC50 in experiment [1] (Homo sapiens, SK-BR-3, 72 h) was 47.9 µM.
Turning to `C=CC(=O)Nc1ccnc(Sc2c(OC)nc(OC)nc2OC)n1` [YK76, N-(2-(2,4,6-trimethoxypyrimidin-5-ylthio)pyrimidin-4-yl)acrylamide], the half-inhibitory concentration (IC50) turned out to be 2.4 µM in experiment [1] (Homo sapiens, SK-BR-3, 72 h) and 22.5 µM in experiment [2] (Homo sapiens, Kasumi 1, 72 h).
Take `COc1nc(N2CCOCC2)nc(OC)c1Sc1cccc(N)c1` [PDP2, 3-(4,6-dimethoxy-2-morpholinopyrimidin-5-ylthio)aniline]: the half-maximal inhibitory concentration (IC50) is more than 100 µM in experiment [1] (Homo sapiens, SK-BR-3, 72 h) and 79.7 µM in experiment [2] (Homo sapiens, Kasumi 1, 72 h).
Regarding `CCC(=O)Nc1cccc(Sc2c(OC)nc(N3CCN(C)CC3)nc2OC)c1` [YK130, N-(3-(4,6-dimethoxy-2-(4-methylpiperazin-1-yl)pyrimidin-5-ylthio)phenyl)propionamide], the 50% inhibitory concentration (IC50) in experiment [1] (Homo sapiens, SK-BR-3, 72 h) was found to be 18.3 µM.
The molecule `COc1nc(N2CCN(C)CC2)nc(OC)c1Sc1nc(NC(C)=O)cc(NC(C)=O)n1` [YK1, N,N′-(2-(4,6-dimethoxy-2-(4-methylpiperazin-1-yl)pyrimidin-5-ylthio)pyrimidine-4,6-diyl)diacetamide] showed a 50% inhibitory concentration (IC50) in experiment [2] (Homo sapiens, Kasumi 1, 72 h) of 15 µM.
The same measure, in the same setting: in the case of `CCCCN1CCN(c2nc(OC)c(Sc3nc(NC(C)=O)cc(NC(C)=O)n3)c(OC)n2)CC1` [YK24, N,N′-(2-(2-(4-butylpiperazin-1-yl)-4,6-dimethoxypyrimidin-5-ylthio)pyrimidine-4,6-diyl)diacetamide] it was 16.8 µM; in that of `COc1nc(NCCCCCCO)nc(OC)c1Sc1nc(N)cc(N)n1` [YK52, 6-(5-(4,6-diaminopyrimidin-2-ylthio)-4,6-dimethoxypyrimidin-2-ylamino)hexan-1-ol], 779 µM.
Same read-out and setting: in the case of `CCOc1nc(N2CCCCC2)nc(OCC)c1Sc1nc(N)cc(NC(=O)CC)n1` [YK38, N-(6-amino-2-(4,6-diethoxy-2-(piperidin-1-yl)pyrimidin-5-ylthio)pyrimidin-4-yl)propionamide] it was 50 µM.
In experiment [2] (Homo sapiens, Kasumi 1, 72 h), `C=CC(=O)Nc1cc(N)nc(Sc2c(OC)nc(N)nc2OC)n1` [YK50, N-(6-amino-2-(2-amino-4,6-dimethoxypyrimidin-5-ylthio)pyrimidin-4-yl)acrylamide] had a half-maximal inhibitory concentration (IC50) of 1.5 µM.
`CCCCCCCC(=O)Nc1cc(N)nc(Sc2c(OC)nc(N3CCN(C)CC3)nc2OC)n1` [YK20, N-(6-amino-2-(4,6-dimethoxy-2-(4-methylpiperazin-1-yl)pyrimidin-5-ylthio)pyrimidin-4-yl)octanamide]: in experiment [2] (Homo sapiens, Kasumi 1, 72 h), the concentration for half-maximal inhibition (IC50) stood at 6.3 µM.
On the same count and under the same terms, the result for `COc1nc(N2CCCCC2)nc(OC)c1Sc1nccc(NC(C)=O)n1` [YK64, N-(2-(4,6-dimethoxy-2-(piperidin-1-yl)pyrimidin-5-ylthio)pyrimidin-4-yl)acetamide] reads 4 µM.
Still for that read-out and setting: in the case of `COc1nc(N2CCN(C)CC2)nc(OC)c1Sc1nc(N)cc(NC(C)=O)n1` [YK53, N-(6-amino-2-(4,6-dimethoxy-2-(4-methylpiperazin-1-yl)pyrimidin-5-ylthio)pyrimidin-4-yl)acetamide] it was 16 µM; in that of `CCOc1nc(N2CCN(C)CC2)nc(OCC)c1Sc1nc(NC(C)=O)cc(NC(C)=O)n1` [YK29, N,N′-(2-(4,6-diethoxy-2-(4-methylpiperazin-1-yl)pyrimidin-5-ylthio)pyrimidine-4,6-diyl)diacetamide], 76.7 µM.
On the same count and under the same terms, in the case of `COc1nc(N2CCN(C)CC2)nc(OC)c1Sc1nc(N)cc(NC(=O)CCN(C)C)n1` [YK51, N-(6-amino-2-(4,6-dimethoxy-2-(4-methylpiperazin-1-yl)pyrimidin-5-ylthio)pyrimidin-4-yl)-3-(dimethylamino)propanamide] it was 8 µM; in that of `CCOc1nc(N2CCN(C)CC2)nc(OCC)c1Sc1nc(N)cc(NC(=O)C2CC2)n1` [YK33, N-(6-amino-2-(4,6-diethoxy-2-(4-methylpiperazin-1-yl)pyrimidin-5-ylthio)pyrimidin-4-yl)cyclopropanecarboxamide], 88.7 µM.
`C=CC(=O)Nc1cc(N)nc(Sc2c(OC)nc(N3CCOCC3)nc2OC)n1` [YK18, N-(6-amino-2-(4,6-dimethoxy-2-morpholinopyrimidin-5-ylthio)pyrimidin-4-yl)acrylamide] displayed a 50% inhibitory concentration (IC50) in experiment [2] (Homo sapiens, Kasumi 1, 72 h) of 3 µM.
Same read-out and setting: in the case of `COc1nc(N2CCCCC2)nc(OC)c1Sc1nc(N)cc(N)n1` [YK12, 2-(4,6-dimethoxy-2-(piperidin-1-yl)pyrimidin-5-ylthio)pyrimidine-4,6-diamine] it was more than 100 µM.
